Key:
[1] = target: T1, C3aR (Homo sapiens, UniProt Q16581); assay: [125I]-hC3a competition binding on HMDMs; set-up: Concentration-dependent Ca^2+ release in human monocyte-derived macrophages (HMDMs); endogenous in cells; host or cells: primary human monocyte-derived macrophages (HMDMs); conditions: [125I]-hC3a 80 pM
T1 sequence (Q16581 1-482): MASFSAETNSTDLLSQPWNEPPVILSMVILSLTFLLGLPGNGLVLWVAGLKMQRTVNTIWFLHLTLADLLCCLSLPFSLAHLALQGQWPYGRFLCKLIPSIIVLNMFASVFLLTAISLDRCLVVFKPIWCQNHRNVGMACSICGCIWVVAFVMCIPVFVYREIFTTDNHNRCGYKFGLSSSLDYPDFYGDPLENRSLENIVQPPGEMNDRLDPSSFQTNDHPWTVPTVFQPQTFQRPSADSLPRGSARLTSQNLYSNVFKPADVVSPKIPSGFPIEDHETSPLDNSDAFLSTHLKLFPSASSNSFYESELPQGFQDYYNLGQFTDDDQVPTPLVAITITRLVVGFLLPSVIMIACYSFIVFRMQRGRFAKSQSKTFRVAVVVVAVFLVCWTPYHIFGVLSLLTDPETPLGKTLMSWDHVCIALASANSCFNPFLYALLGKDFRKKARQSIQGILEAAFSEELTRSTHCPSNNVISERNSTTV
Procedure: (§1) Receptor binding was performed by ligand competition with labelled 80 pM [^125I]-C3a or 25 pM [^125I]-C5a (2200 Ci/mmol; Perkin Elmer, Torrance, CA, USA) on HMDMs (1.2 × 10^6 cells/ml). HMDMs were treated with [^125I]-C3a or [^125I]-C5a ± various concentrations of unlabelled C3a/C5a or experimental ligands were diluted with assay buffer (50 mM Tris, 3 mM MgCl2, 0.1 mM CaCl2, 0.5% (w/v) BSA, pH 7.4) for 60 min at room temperature. Unbound [^125I]-C3a or [^125I]-C5a was removed by filtration through glass microfibre filter GF/B (Whatman Iner. Ltd, England) and washed three times with cold buffer (50 mM Tris-HCl pH 7.4). Bound [^125I]-C3a or [^125I]-C5a were assessed by scintillation counting on Microbeta counter. Specific binding was defined as the difference between total binding and nonspecific binding as determined in the presence of 1 μM unlabelled C3a or C5a[4].

[2] = target: T1, C3aR; assay: Intracellular Ca2+ release in HEK293 cells transfected with C3aR; format: cell-based; set-up: Concentration-dependent Ca^2+ release in human monocyte-derived macrophages (HMDMs); endogenous in cells; host or cells: primary human monocyte-derived macrophages (HMDMs)
[3] = target: T2, C5aR (Homo sapiens, UniProt P21730); assay: [125I]-hC5a competition binding on HMDMs; conditions: [125I]-hC5a 25 pM
T2 construct: endogenous in cells; host or cells: primary human monocyte-derived macrophages (HMDMs)
T2 sequence (P21730 1-350): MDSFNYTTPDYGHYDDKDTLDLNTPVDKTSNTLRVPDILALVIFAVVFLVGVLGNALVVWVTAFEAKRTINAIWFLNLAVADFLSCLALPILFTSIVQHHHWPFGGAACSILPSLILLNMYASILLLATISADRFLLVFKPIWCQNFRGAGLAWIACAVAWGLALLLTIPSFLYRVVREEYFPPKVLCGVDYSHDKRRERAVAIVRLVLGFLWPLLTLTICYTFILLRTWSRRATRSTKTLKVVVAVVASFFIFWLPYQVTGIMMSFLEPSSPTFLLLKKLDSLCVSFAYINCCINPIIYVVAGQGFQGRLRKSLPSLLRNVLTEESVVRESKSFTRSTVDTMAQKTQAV
Procedure: as §1

[4] = test system: wild-type human HEK293 cells (C3aR−/−); assay: Intracellular Ca2+ release in wild-type HEK293 cells; format: cell-based
[5] = Rat liver microsomal stability; format: in vitro ADME; conditions: rat liver microsomes, NADPH, 37 °C, over 1 h
Procedure: (§2) For plasma stability studies, C3a and experimental compounds (10 μL, 1 mM in DMSO) were added to neat rat plasma (190 μL) and heated to 37 °C in a circulating water bath. Aliquots (20 µL) were collected at time points (0, 2, 5 and 10 min for C3a; 0, 5, 15, 30, 60, 120 and 240 min for other test compounds) and added directly to MeCN/H2O (80 µL, 9:1). The samples were centrifuged at 13,000 g for 3 min before supernatants were isolated and analyzed for test compound degradation via LC-MS. For liver microsomal stability studies, commercially available rat liver microsomes from Life Technologies, GIBCO were used. In brief, microsomes stored at −80 °C were slowly defrosted on ice. Test compounds (183 μL, 1 μM in 100 mM phosphate buffer pH 7.4 containing 0.1 % DMSO) were added to microsomes (5 μL) and NADPH (2 µL, 20 mM). Test solutions were heated in a circulating water bath at 37 °C for 5 min before additional cofactor NADPH (10 μL, 20 mM) was added. Aliquots (20 μL) were taken at time points (0, 5, 15, 30 and 60 min from the second addition of NADPH). Aliquots were added to MeCN/H2O (80 μL, 9:1) and centrifuged at 13,000 g for 3 min. Supernatants were analyzed for test compound degradation by LC-MSMS. Concentrations were plotted as a function of time on a semi-logarithmic graph. Rat plasma and microsomal activity was confirmed by rapid degradation of SLIGRL-NH2 (t1/2 < 5 min) in a parallel experiment.

[6] = Rat plasma stability; format: in vitro ADME; conditions: neat rat plasma, 37 °C, over 4 h (C3a up to 10 min)
Procedure: as §2

Row | C3aR binding by competition with [125I]-hC3a [1] | Intracellular Ca2+ release ([2]; HEK293 cells transfected with C3aR (C3aR+/+), compound alone) | C5aR binding by competition with [125I]-hC5a [3] | Stability in rat liver microsomes [5] | Stability in rat plasma [6] | Effect on Ca2+ release induced by C3a or 3 ([2]; C3aR-HEK293 cells, pre-treatment 30 min before C3a or 3) | Compound | Intracellular Ca2+ release [4]
1 | compete with ^125I-labelled C3a | did induce Ca^2+ release | no binding | much more stable than C3a | remained intact |  | Cc1[nH]c(C(c2ccccc2)c2ccccc2)nc1C(=O)N[C@@H](CCCNC(=N)N)C(=O)O [Compound 3] | did not induce Ca^2+ release
2 | compete with ^125I-labelled C3a |  | no binding | much more stable than C3a | remained intact | prevented | N=C(N)NCCCC(NC(=O)c1ccc(C(c2ccccc2)c2ccccc2)s1)C(=O)O (stereo not drawn) [Compound 6] | did not induce Ca^2+ release

— publication PMC5570900, “Exploiting a novel conformational switch to control innate immunity mediated by complement protein C3a” (Nature Communications, 2017)
